Data: PubChem BioAssay (NCI)
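Briefly, cells in 96-well plates were exposed to five compound concentrations for 48 h, and endpoints were estimated by linear interpolation. GI50 is the concentration that inhibits growth by half. TGI: concentration producing complete growth inhibition.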

Assays:
Experiment in all cases: growth of human tumour cells (NCI), 48 h
[1] = test system: UACC-62 melanoma
[2] = test system: DU-145 prostate
[3] = test system: IGROV1 ovarian
[4] = test system: ACHN renal
[5] = test system: 786-0 renal
[6] = test system: HCT-15 colon
[7] = test system: MCF7 breast
[8] = test system: MALME-3M melanoma
[9] = test system: CCRF-CEM leukemia
[10] = test system: SK-MEL-2 melanoma
[11] = test system: SN12C renal
[12] = test system: MDA-MB-231 breast
[13] = test system: A549 NSCLC
[14] = test system: MDA-MB-435
[15] = test system: HS 578T breast
[16] = test system: MOLT-4 leukemia
[17] = test system: KM12 colon
[18] = test system: CAKI-1 renal
[19] = test system: OVCAR-5 ovarian
[20] = test system: M14 melanoma
[21] = test system: SR leukemia
[22] = test system: COLO 205 colon
[23] = test system: RPMI-8226 leukemia
[24] = test system: UACC-257 melanoma
[25] = test system: NCI-H522 lung
[26] = test system: SNB-19 CNS
[27] = test system: HCT-116 colon
[28] = test system: TK-10 renal
[29] = test system: T-47D breast
[30] = test system: SK-MEL-28 melanoma
[31] = test system: SF-268 CNS
[32] = test system: SK-OV-3 ovarian
[33] = test system: K-562 leukemia
[34] = test system: U251 CNS
[35] = test system: OVCAR-8 ovarian
[36] = test system: BT-549 breast
[37] = test system: HL-60(TB) leukemia
[38] = test system: HT29 colon
[39] = test system: EKVX NSCLC
[40] = test system: PC-3 prostate
[41] = test system: LOX IMVI melanoma
[42] = test system: NCI-H226 lung
[43] = test system: OVCAR-4 ovarian
[44] = test system: HCC-2998 colon
[45] = test system: UO-31 renal
[46] = test system: RXF 393 renal
[47] = test system: A498 renal
[48] = test system: SF-295 CNS
[49] = test system: SW-620 colon
[50] = test system: HOP-62 NSCLC
[51] = test system: SF-539 CNS
[52] = test system: NCI-H23 lung
[53] = test system: SNB-75 CNS
[54] = test system: OVCAR-3 ovarian
[55] = test system: NCI/ADR-RES ovarian

CN(c1ccc(Br)cc1)S(=O)(=O)c1ccc(-c2cnc(C3CC3)o2)cc1
GI50 [1]: 65.8 nM | TGI [1]: > 100000 nM | GI50 [2]: 375 nM | TGI [2]: > 100000 nM | GI50 [3]: 253 nM | TGI [3]: > 100000 nM | GI50 [4]: 677 nM | TGI [4]: > 100000 nM | GI50 [5]: 397 nM | TGI [5]: > 100000 nM | GI50 [6]: 60.3 nM | TGI [6]: > 100000 nM | GI50 [7]: 45.1 nM | TGI [7]: > 100000 nM | GI50 [8]: 3840 nM | TGI [8]: > 100000 nM | GI50 [9]: 86.2 nM | TGI [9]: > 100000 nM | GI50 [10]: 1340 nM | TGI [10]: > 100000 nM | GI50 [11]: 1030 nM | TGI [11]: > 100000 nM | GI50 [12]: 480 nM | TGI [12]: > 27400 nM | GI50 [13]: 321 nM | TGI [13]: > 100000 nM | GI50 [14]: 30.9 nM | TGI [14]: 111 nM | GI50 [15]: 279 nM | TGI [15]: > 100000 nM | GI50 [16]: 286 nM | TGI [16]: > 100000 nM | GI50 [17]: 225 nM | TGI [17]: > 100000 nM | GI50 [18]: 84.6 nM | TGI [18]: > 100000 nM | GI50 [19]: 524 nM | TGI [19]: > 100000 nM | GI50 [20]: 156 nM | TGI [20]: > 100000 nM | GI50 [21]: 48.5 nM | TGI [21]: > 100000 nM | GI50 [22]: 370 nM | TGI [22]: > 100000 nM | GI50 [23]: 209 nM | TGI [23]: 2470 nM | GI50 [24]: > 53300 nM | TGI [24]: > 100000 nM | GI50 [25]: 374 nM | TGI [25]: > 100000 nM | GI50 [26]: 271 nM | TGI [26]: > 100000 nM | GI50 [27]: 129 nM | TGI [27]: > 100000 nM | GI50 [28]: > 64400 nM | TGI [28]: > 100000 nM | GI50 [29]: 839 nM | TGI [29]: > 100000 nM | GI50 [30]: 9450 nM | TGI [30]: > 100000 nM | GI50 [31]: 1160 nM | TGI [31]: > 100000 nM | GI50 [32]: 5330 nM | TGI [32]: > 100000 nM | GI50 [33]: 41.9 nM | TGI [33]: > 100000 nM | GI50 [34]: 324 nM | TGI [34]: > 100000 nM | GI50 [35]: 597 nM | TGI [35]: > 100000 nM | GI50 [36]: 2960 nM | TGI [36]: > 100000 nM | GI50 [37]: 32.6 nM | TGI [37]: 142 nM | GI50 [38]: 210 nM | TGI [38]: > 100000 nM | GI50 [39]: 454 nM | TGI [39]: > 100000 nM | GI50 [40]: 121 nM | TGI [40]: > 100000 nM | GI50 [41]: 93.9 nM | TGI [41]: > 100000 nM | GI50 [42]: 284 nM | TGI [42]: 7520 nM | GI50 [43]: 774 nM | TGI [43]: > 100000 nM | GI50 [44]: 299 nM | TGI [44]: > 100000 nM | GI50 [45]: 880 nM | TGI [45]: > 100000 nM | GI50 [46]: 85.9 nM | TGI [46]: 403 nM | GI50 [47]: 50 nM | TGI [47]: 700 nM | GI50 [48]: 71.2 nM | TGI [48]: > 100000 nM | GI50 [49]: 82.7 nM | TGI [49]: > 100000 nM | GI50 [50]: 412 nM | TGI [50]: > 100000 nM | GI50 [51]: 142 nM | TGI [51]: 2700 nM | GI50 [52]: 393 nM | TGI [52]: > 100000 nM | GI50 [53]: 114 nM | TGI [53]: > 52100 nM | GI50 [54]: 109 nM | TGI [54]: 5270 nM | GI50 [55]: 73.2 nM | TGI [55]: > 40700 nM
